Residues, ends and D or L forms follow the SMILES beside them.
B1: rMnSOd: recombinant form of LSA-type-MnSOD bearing the 24 amino acid leader peptide at the N-terminus (protein, UniProt P04179 1-222, looked up)
chain: MLSRAVCGTSRQLAPVLGYLGSRQKHSLPDLPYDYGALEPHINAQIMQLHHSKHHAAYVNNLNVTEEKYQEALAKGDVTAQIALQPALKFNGGGHINHSIFWTNLSPNGGGEPKGELLEAIKRDFGSFDKFKEKLTAASVGVQGSGWGWLGFNKERGHLQIAACPNQDPLQGTTGLIPLLGIDVWEHAYYLQYKNVRPDYLKAIWNVINWENVTERYMACKK
modifications: full-length

What was measured:
HUT-7 Hepatocarcinoma = assay: Cytotoxicity by LDH release (Cytotox 96); format: cell-based, human; set-up: LDH μelease: dose or concentration left out as unconfirmed; conditions: % of total LDH; for LDH release: 1.5 μM, 24 hr or 48 hr
Method: (§1) The leader peptide of 24 aa. […] The release of lactate dehydrogenase (LDH) was then measured quantitatively in the supernatant of the culture medium of the cells after 24 hr of incubation, using the Cytotox 96 non riadioactive cytotoxic assay kit in compliance with the technical indications provided by Promega. The experiments were performed in triplicate in an independent manner, using different preparations. (Table III)
(§2) After the incubation the amount of lactate dehydrogenase (LDH) released from cells into the supernatant was measured. This quantity was expressed as a percentage of the total LDH (released by cells in which cell lysis had been induced using a detergent). Approximately 3% of LDH was found in the culture medium of not treated cells.

MRC-5 = assay: Cytotoxicity by LDH release (Cytotox 96); format: cell-based, human; set-up: LDH μelease: dose or concentration left out as unconfirmed; conditions: % of total LDH; for LDH release: 1.5 μM, 24 hr or 48 hr
Method: as §1, §2

PaTu Ca pancreatic = assay: Cytotoxicity by LDH release (Cytotox 96); format: cell-based, human; set-up: LDH μelease: dose or concentration left out as unconfirmed; conditions: % of total LDH; for LDH release: 1.5 μM, 24 hr or 48 hr
Method: as §1, §2

[1] = system: Human breast carcinoma MCF-7; assay: Cytotoxicity by LDH release (Cytotox 96); format: cell-based; conditions: % of total LDH; for LDH release: 1.5 μM, 24 hr or 48 hr
Method: as §1, §2

A-2780 = assay: Cytotoxicity by LDH release (Cytotox 96); format: cell-based, human; conditions: % of total LDH; for LDH release: 1.5 μM, 24 hr or 48 hr
Method: as §1, §2

A375 = assay: Determination of platinum in culture medium and cell pellet by atomic absorption spectrophotometry; format: cell-based, human; conditions: 92 μM, 3 hours
Method: (§3) The cells to be examined, after the incubation period, were harvested, washed twice in buffered solution (PBS) and treated with 50 μl of 35% HNO3 for 16 hours. The platinum (Pt) contained in the culture medium or in the cell pellet was determined by spectrophotometer at atomic absorption (Analyst 800, Perkin-Elmer, Norwalk, Conn.) using the following criteria: temperature of pretreatment, 1300° C., temperature of atomizing 2200° C. 0.015 μg of palladium were used (palladium has been used for the modification of the matrix) and 0.01 μg of Mg (NO3)2 as a modifier of the matrix. The determinations were performed using a graphite furnace equipped with the correction system of the Zeeman effect. For the determination of the metal, tubes of pyrolytic graphite coated with THGA were used (Perkin-Elmer) with an integrated “vov-type platform” system. A standard solution of platinum in 2.5% HNO3 (Spectrascan) was used as a mother solution for the construction of a calibration curve with three points of reference. Each determination was performed independently, in triplicate (11).

A2780 = assay: as above; format: cell-based, human; conditions: 92 μM, 3 hours
Method: as §3

DU145 = assay: as above; format: cell-based, human; conditions: 92 μM, 3 hours
Method: as §3

HUH-7 = assay: as above; format: cell-based, human; conditions: 92 μM, 3 hours
Method: as §3

MCF-7 = assay: as above; format: cell-based, human; conditions: 92 μM, 3 hours
Method: as §3

Human Normal Lymphocytes = assay: Lymphocyte penetration, immunocytochemistry / immunofluorescence; format: cell-based; conditions: 3 hour incubation
Method: Human Normal Lymphocytes cells were collected from healthy donors and purified using Ficoll Hystopaque density gradient centrifugation. The cells were cultured at a density of 1×10^6 cells/mL in RPMI media supplemented with 1% Penstrep and 10% FBS in a humidified atmosphere containing 5% CO2 at 37° C.
(§4) A cytospin was used to smear cells onto slides. The smears were fixed in Zamboni solution (4% paraformaldehyde, 15% picric acid) for 60 minutes and then washed with 1×PBS and incubated for five minutes with 3% hydrogen peroxide to quench endogenous peroxidase activity. Immunostaining was performed using the DAKO LSA+System HRP kit. Rabbit anti-rMnSOD-Lp (1:200), was incubated on slides for 30 minutes, followed by incubation with the biotinylated secondary antibody for 30 minutes and peroxidase-labeled streptavidin for 30 minutes. To complete the reaction, a substrate-chromogen solution was used. The smears were counterstained with hematoxylin.

[2] = system: tumor cells of human origin; assay: Immuno-histochemical assessment of internalization; format: cell-based; conditions: text summary of Table II
Method: (§5) Subsequently, a cytospin was used to obtain a smear of cells on slides. The cells were then placed in Zamboni solution (4% paraformaldehyde, 15% picric acid) for 60 min and then washed with a solution of 1×PBS and incubated for 5 min with 3% hydrogen peroxide to suppress the action of endogenous peroxidase. The immuno-coloring was performed using the Dako LSA+System HRP kit (DAKO, CA, USA). The incubation lasted 30 minutes with primary antibody anti-peptide leader of 24 aa (1:200), produced in rabbits. This phase was followed by sequential method that requires a 30-min incubation with biotinylated antibody and peroxidase-labeled streptavidin. To complete the reaction of differentiation, a substrate-chromogen solution was engaged. Cell smears were colored with hematoxylin.
(§6) A positive reaction is represented by a brownish coloration. A blue coloration indicates negativity.
The immunocytochemical analysis was performed using a polyclonal antibody able to recognize the amino acid sequence of the peptide leader of rMnSOD (7), ie of 24 aa. among which there are also those that form the hexapeptide.
After incubation with these molecules, the cells were washed and treated with the polyclonal antibody for three hours at rt, and then the cells were washed with a solution of PBS [17, 18]. In control cells (not treated and those treated with the antibody alone), the reaction is negative. […]

Jurkat cells = assay: Jurkat cell penetration, immunofluorescence; format: cell-based, human; conditions: 92 μM, 3 h
Method: Jurkat cells (ATTC, UK) were seeded at density of 150000 cells/well in RPMI media supplemented with 1% Penstrep and 10% FBS in a humidified atmosphere containing 5% CO2 at 37°. The next day, the cells were incubated with 92 μM AVCGTG (SEQ ID NO. 1)-FITC for 3 h in multiwell 24. Subsequently, a cytospin was used to smear cells onto slides. The smears were fixed with 4% paraformaldehyde/PBS for 10 min and rinsed twice with 1×PBS containing 0.1% Triton to remove traces of fixative. Cell samples without AVCGTG (SEQ ID NO. 1)-FITC were used for the background control. After blocking solution with 5% NGS (Normal Goat Serum, VECTOR) 1×PBS+0,1% Triton X-100, was added for 30 minutes. After removing the blocking solution, cells were incubated with primary antibody hexapeptide, diluted 1:200 in blocking solution, overnight at 4° C. The following day, after washing with lx PBS and 0.1% Triton X-100 for 10 minutes, secondary antibody (ALEXA FLUO 488A, SANTACRUZ) diluted 1:400 with 1×PBS and 0.1% Triton X-100 for 2 h was added. The excess of antibody was removed with 3 washes with 1×PBS.
Nuclei were stained with DAPI (1 μg/mL). The slides were mounted and stored in the dark at 4° C. and then observed by fluorescence microscope ZEISS HB050 by using the software Axion Vision Re1.4.8.

[3] = Cytotoxicity by LDH release, summary over the cell lines; format: cell-based; conditions: human
white blood cells = assay: White blood cell penetration, immunocytochemistry at light microscopy; format: cell-based, human; conditions: healthy subject
Method: as §4, with “Lymphocytes were incubated for five hours in the presence of fluorescinated Hexapeptide 92 μM. A cytospin” for “A cytospin”

cells = assay: Ability of hexapeptide conjugated to fluorescein to enter cells (immunocytochemistry); format: cell-based; conditions: immunocytochemistry examination
From the text: The test results are positive and confirms the previous data.

[4] = system: DU 145 Renal Cell Carcinoma; assay: Immuno-histochemical assessment of internalization (Ab anti-leader peptide 24 aa); format: cell-based, human; conditions: 3 hours, 92 μM, positive = brownish coloration
Method: as §5, with “The cells were then placed in Zamboni solution (4% paraformaldehyde, 15% picric acid) for 60 min and then washed with a solution of 1×PBS and incubated for 5 min with 3% hydrogen peroxide to suppress the action of endogenous peroxidase.” left out
as §6
(§7) After incubation with these molecules, the cells were washed and treated with the polyclonal antibody for three hours at rt, and then the cells were washed with a solution of PBS [17, 18].

A-2780 Ovarian Ca = assay: as above; format: cell-based, human; conditions: 3 hours, 92 μM, positive = brownish coloration
Method: as §5, with “The cells were then placed in Zamboni solution (4% paraformaldehyde, 15% picric acid) for 60 min and then washed with a solution of 1×PBS and incubated for 5 min with 3% hydrogen peroxide to suppress the action of endogenous peroxidase.” left out
as §6, §7

A-375 Melanoma = assay: as above; format: cell-based, human; conditions: 3 hours, 92 μM, positive = brownish coloration
Method: as §5, with “The cells were then placed in Zamboni solution (4% paraformaldehyde, 15% picric acid) for 60 min and then washed with a solution of 1×PBS and incubated for 5 min with 3% hydrogen peroxide to suppress the action of endogenous peroxidase.” left out
as §6, §7

HUH HCC = assay: as above; format: cell-based, human; conditions: 3 hours, 92 μM, positive = brownish coloration
Method: as §5, with “The cells were then placed in Zamboni solution (4% paraformaldehyde, 15% picric acid) for 60 min and then washed with a solution of 1×PBS and incubated for 5 min with 3% hydrogen peroxide to suppress the action of endogenous peroxidase.” left out
as §6, §7

[5] = system: Human breast cancer MCF-7; assay: as above; format: cell-based; conditions: 3 hours, 92 μM, positive = brownish coloration
Method: as §5, with “The cells were then placed in Zamboni solution (4% paraformaldehyde, 15% picric acid) for 60 min and then washed with a solution of 1×PBS and incubated for 5 min with 3% hydrogen peroxide to suppress the action of endogenous peroxidase.” left out
as §6, §7

Molecule	LDH release (HUT-7 Hepatocarcinoma)	LDH release (MRC-5)	LDH release (PaTu Ca pancreatic)	LDH release [1]	LDH release (A-2780)	Cellular uptake of Pt (A375)	Pt cell pellet (A375)	Cellular uptake of Pt (A2780)	Pt cell pellet (A2780)	Cellular uptake of Pt (DU145)	Pt cell pellet (DU145)	Cellular uptake of Pt (HUH-7)	Pt cell pellet (HUH-7)	Cellular uptake of Pt (MCF-7)	Pt cell pellet (MCF-7)	reaction with polyclonal antibody against leader peptide of 24 aa [2]	internalization, reaction with Ab anti-peptide (24 aa) [4]	internalization, reaction with Ab anti-peptide (24 aa) (A-2780 Ovarian Ca)	internalization, reaction with Ab anti-peptide (24 aa) (A-375 Melanoma)	internalization, reaction with Ab anti-peptide (24 aa) (HUH HCC)	further results
N.N.[Cl][Pt][Cl] [CC, cisplatin, reference compound]	32%	37%	25%	48%	36%	1.5%	399.9 µg/L	0.75%	163 µg/L	0.9%	167.3 µg/L	1.2%	242.9 µg/L	2.6%	760 µg/L	–	–	–	–	–	–
CC(C)[C@H](NC(=O)[C@H](C)N)C(=O)N[C@@H](CS)C(=O)NCC(=O)N[C@H](C(=O)NCC(=O)O)[C@@H](C)O [Hexapeptide, AVCGTG] (H-AVCGTG-OH; N-terminus assumed)	–	–	–	–	–	–	–	–	–	–	–	–	–	–	–	positive	–	–	–	–	LDH μelease (HUT-7 Hepatocarcinoma): 4%; LDH μelease (MRC-5; not treated cells): 2%; LDH μelease (PaTu Ca pancreatic; not treated cells): 3%; internalization in lymphocytes (Human Normal Lymphocytes): cytoplasmic internalization; LDH μelease ([1]; 1.5 mM): 5%; penetration into Jurkat cells (Jurkat cells): cytoplasmic internalization; LDH μelease (A-2780; 1.5 mM): 5%; mortality at 24 hr, 1.5 μM [3]: 2 to 5%; penetration into white blood cells (white blood cells): positive
ACTGVG [reference compound]	–	–	–	–	–	–	–	–	–	–	–	–	–	–	–	–	–	–	–	–	penetration into the cells (cells): does not penetrate into the cells
Lp-CC (AVCGTG)	69%	40%	60%	77%	85%	15.5%	372 µg/L	5.9%	144 µg/L	13.8%	342.8 µg/L	5.2%	118.7 µg/L	4.2%	97 µg/L	–	positive	positive	positive	positive	internalization, reaction with Ab anti-peptide (24 aa) [5]: positive
B1	–	–	–	–	–	–	–	–	–	–	–	–	–	–	–	positive	positive	positive	positive	positive	internalization, reaction with Ab anti-peptide (24 aa) [5]: positive
